Test results as given in patent publication US8101780B2, “Crystalline form of 3-(difluormethyl)-1-methyl-N-(3′,4′,5′-trifluor[1,1′-biphenyl]-2-yl)-1H-pyrazol-4-carboxamide” (BASF SE, priority 2007, dated 2012).

Columns and labels:
Type in all cases: physicochemical
[1] = Slurry examples: forms suspended in water at 30° C., stirred, XRD analysis; details: magnetic stirrer
Procedure: Slurry Examples Proving the Stability of Form B:
The form in question or mixtures of different forms of 3-(difluoromethyl)-1-methyl-N-(3′,4′,5′-trifluoro[1,1′-biphenyl]-2-yl)-1H-pyrazole-4-carboxamide were suspended in water at 30° C.

[2] = Formulation stability upon storage at 40° C. for one week (sedimentation, particle size, crystalline modification by DSC and PXRD); details: SC formulation
Procedure: The stability of the crystalline forms was tested by formulating form A or form B according to examples 1 and 2 and analyzing the formulation stability in the form of sedimentation, particle size growth and change in crystalline modification.
The obtained formulations were assessed for their stability upon storage at 40° C. for one week. Microscopic pictures of the formulation were taken before and after storage at 40° C. to examplify the change in particle size. Dispersion stability was assessed using a 2% dilution of the formulation in water in a conical cylinder. The sedimentation volume is recorded after 2 hours of standing. The sediment was collected and analysed using DSC and powder diffraction diffractometry to characterized the solid sediment (giving thus evidence of the sediment amount and crystalline modification present in the sedimentation).
This would in practice be very unfavourable and cause blocking of nozzle during the application and inhomogeneous distribution of the active ingredient into the formulation.

[3] = Phase conversion of the amorphous form at room temperature
Description: The phase transformation can be seen for example in a DSC measurement or under a hot stage microscope.

Row | Compound | Conversion of solid form in water suspension (XRD analysis) ([1]; after 2 days) | Phase transformation of the formulated active ingredient (DSC and PXRD) [2] | Conversion of solid form in water suspension (XRD analysis) ([1]; after 1 day) | Conversion of solid form on standing [3]
1 | Cn1cc(C(=O)Nc2ccccc2-c2cc(F)c(F)c(F)c2)c(C(F)F)n1 [form A, 3-(Difluormethyl)-1-methyl-N-(3′,4′,5′-trifluor[1,1′-biphenyl]-2-yl)-1H-pyrazol-4-carboxamide] | converted (based on XRD analysis) into form B | converted fully into needle like crystals of form B | – | –
2 | Cn1cc(C(=O)Nc2ccccc2-c2cc(F)c(F)c(F)c2)c(C(F)F)n1 [amorphous form, 3-(Difluormethyl)-1-methyl-N-(3′,4′,5′-trifluor[1,1′-biphenyl]-2-yl)-1H-pyrazol-4-carboxamide] | – | – | converted (based on XRD analysis) into form B | converts at room temperature slowly to crystalline form A or typically to mixtures of form A and form B
